Assay results published in patent publication US9233995B2, “Quinazoline derivatives and quinazoline complex protein kinase inhibitor for inhibiting multiplication of tumor cells and preparation method thereof” (INSTITUTE OF CHEMISTRY, CHINESE ACADEMY OF SCIENCES, priority 2010, dated 2016).
Read-outs that look alike come from different tables or passages of the source.

Experiments:
[1] = Solubility (physicochemical properties, Table 1); details: room temperature, atmospheric pressure
[2] = test system: human breast cancer cell line (sensitive) MCF-7/S + EGF; assay: Cytotoxicity experiment under the condition of additional EGF, SRB method; type: cell-based
Procedure: Human breast cancer cell line (sensitive) MCF-7/S and human non-small cell lung cancer cell line A549 are cultured in HAM′S/F-12 medium (HyClone, USA) containing 10 wt % fetal bovine serum (FBS, Hyclone, USA), and 100 ng/ml epidermal growth factor (EGF, Sigma, USA) is added to this medium. Cells described above were purchased from Cell Resource Center, Shanghai Institute for Biological Science, CAS, they are placed in a CO2 incubator and used for the experiment 3-5 days later.
(§1) Wherein, for experiment on compound cytotoxicity assay by sulforhodamine B (SRB) method: Cells in the logarithmic growth phase are collected and inoculated at 96-well plates (6500 cells/well/100 ul, RPMI1640 containing 100 ng/ml of EGF). After incubation for 24 h, compounds at gradient concentrations (200, 100, 50, 25, 12.5, 6.25, 1 (μM/L)) are added. The same volume of RPMI1640 containing 100 ng/ml of EGF is used as control group of the experiment; the blank group is only culture medium without cell. Three parallel wells are set up for each concentration group. After incubation is continued for 48 h, the cell survival rate is measured by SRB method. 50 μl 10% trichloroacetic acid (TCA) pre-cooled (4° C.) is added to each well, it is fixed for 1 hour at 4° C., washed with water for five times, and completely dried, and then 100 μl of SRB solution (Sigma, USA) at concentration of 0.4% by weight is added, and staining is performed at 37° C. in the dark for 30 min. Wash with acetic acid at a concentration of 1% by weight for 4-5 times, dry in the air, add 200 μl of Tris solution (10 mM, pH 10.5), after sufficiently dissolved, the absorbance (absorption wavelength is 570 nm) is measured in microplate reader.
(§2) The growth inhibition rate (IR) is calculated according to the following formula: IR (%)=[1−(experiment group A value−blank group A value)/(control group A value−blank group A value)]×100%, and the IC50 value is calculated using Origin 6.0 software.

[3] = test system: human breast cancer cell line (sensitive) MCF-7/S; assay: Cytotoxicity experiment, SRB method, tumor cell proliferation; type: cell-based; details: 48 h, read-out: IC50 (umol/L) Breast cancer cell (sensitive) MCF-7/S
Procedure: (§3) Human breast cancer cell line (drug-resistant) MCF-7/A, human breast cancer cell line (sensitive) MCF-7/S, prostate cancer cell PC-3, keratinocyte Colo-16, human non-small cell lung cancer cell line A549 and etc. are cultured in RPMI1640 medium (Invitrogen, USA) containing 10 wt % fetal bovine serum (FBS, Hyclone, USA), and epidermal growth factor (EGF) at a concentration of 100 ng/ml is added to stimulate growth. After 2-3 days, cells in logarithmic growth phase are collected, and inoculated at 96 well plates (6500 cells/well/100 ul, RPMI1640 containing 100 ng/mL EGF) for 24 h, and then compound at gradient concentrations (200, 100, 50, 25, 12.5, 6.25, 1 μM/L) are added. The same volume of RPMI1640 containing 1 wt % of dimethyl sulfoxide (DMSO) is used as control group of the experiment; the blank group is only culture medium without cell. Three parallel wells are set up for each concentration group. After incubation is continued for 48 h, the cell survival rate is measured by SRB method. Results are shown in Table 2 and Table 3, respectively.
as §1, §2

[4] = test system: keratinocyte Colo-16; assay: as above; type: cell-based; details: read-out: IC50 (μmol/L) Keratinocyte Colo-16
Procedure: as §3, §1, §2

[5] = test system: human non-small cell lung cancer cell line A549; assay: as above; type: cell-based; details: A549, 48 h, read-out: IC50 (μmol/L) Non-small cell lung cancer cell A549
Procedure: as §3, §1, §2

[6] = test system: Human breast cancer cell line (drug-resistant) MCF-7/A; assay: as above; type: cell-based; details: 48 h, read-out: IC50 (umol/L) Breast cancer cell (drug-resistant) MCF-7/A
Procedure: as §3, §1, §2

[7] = test system: prostate cancer cell PC-3; assay: as above; type: cell-based; details: read-out: IC50 (μmol/L) Prostate cancer cell PC-3
Procedure: as §3, §1, §2

[8] = Stability (physicochemical properties, Table 1); details: for Stability (photostability): light
[9] = target: T1, EGFR (Epidermal Growth Factor Receptor) (Homo sapiens, UniProt P00533); assay: Enzyme-linked immunosorbent assay (ELISA), kinase inhibitory activity (phosphorylation of PTP1B(Tyr66) biotinylated peptide substrate); type: biochemical; details: average of two independent parallel experiments
T1 construct: purchased CST
T1 sequence (P00533 25-1210): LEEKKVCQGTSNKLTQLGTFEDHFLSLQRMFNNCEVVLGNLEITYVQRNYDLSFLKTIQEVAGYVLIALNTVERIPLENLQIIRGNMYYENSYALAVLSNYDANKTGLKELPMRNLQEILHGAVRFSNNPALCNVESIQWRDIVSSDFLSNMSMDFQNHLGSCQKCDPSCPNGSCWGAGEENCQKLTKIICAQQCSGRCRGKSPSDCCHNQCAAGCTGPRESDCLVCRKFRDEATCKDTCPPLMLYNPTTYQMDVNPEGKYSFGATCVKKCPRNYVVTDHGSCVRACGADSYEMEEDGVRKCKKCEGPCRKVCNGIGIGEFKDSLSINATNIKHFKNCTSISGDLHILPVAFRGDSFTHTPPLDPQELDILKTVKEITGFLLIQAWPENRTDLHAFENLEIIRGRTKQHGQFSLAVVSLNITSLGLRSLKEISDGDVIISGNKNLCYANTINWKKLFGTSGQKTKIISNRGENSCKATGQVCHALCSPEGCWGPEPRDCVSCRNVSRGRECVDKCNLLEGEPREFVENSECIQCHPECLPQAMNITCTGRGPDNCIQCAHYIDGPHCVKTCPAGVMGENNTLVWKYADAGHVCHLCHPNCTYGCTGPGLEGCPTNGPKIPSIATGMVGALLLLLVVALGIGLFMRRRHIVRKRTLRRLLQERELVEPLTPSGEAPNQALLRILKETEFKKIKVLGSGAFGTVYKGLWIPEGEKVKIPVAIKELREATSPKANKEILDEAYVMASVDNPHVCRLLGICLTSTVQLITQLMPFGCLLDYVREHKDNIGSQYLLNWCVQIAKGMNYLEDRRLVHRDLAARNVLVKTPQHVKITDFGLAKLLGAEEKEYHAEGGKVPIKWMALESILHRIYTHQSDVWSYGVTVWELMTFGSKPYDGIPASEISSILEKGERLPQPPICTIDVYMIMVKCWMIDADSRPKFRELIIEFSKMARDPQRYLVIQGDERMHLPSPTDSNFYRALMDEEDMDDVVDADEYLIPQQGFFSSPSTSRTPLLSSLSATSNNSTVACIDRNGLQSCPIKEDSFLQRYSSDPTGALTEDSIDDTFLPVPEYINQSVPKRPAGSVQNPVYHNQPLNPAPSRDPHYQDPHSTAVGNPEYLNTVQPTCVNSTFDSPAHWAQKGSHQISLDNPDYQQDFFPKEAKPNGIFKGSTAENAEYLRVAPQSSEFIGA
Description: Protein kinase assay kit: PTP1B(Tyr66) Biotinylated Peptide from CST company is used as a substrate of kinase EGFR (Epidermal Growth Factor Receptor).

[10] = Homo sapiens, MCF7S, MCF-7/S with additional EGF 100 ng/ml, 48 h, SRB, read-out: IC50 (umol/L) Breast cancer cell (sensitive) MCF-7/S + EGF
[11] = Keratinocyte, Colo-16, 48 h, SRB
[12] = MCF-7/S with additional EGF 100 ng/ml, 48 h, SRB, read-out: IC50 (umol/L) Breast cancer cell (sensitive) MCF-7/S + EGF

SMILES	Solubility in DMSO [1]	Solubility in methanol and ethanol [1]	Solubility in water [1]	Stability (in air) [8]	Stability (photostability) [8]	IC50 [9] [µM]	IC50 ([7]; PC-3, 48 h, SRB) [µmol/L]	IC50 [2, 12] [µmol/L]	IC50 [3] [µmol/L]	IC50 ([4]; Colo-16, 48 h, SRB) [µmol/L]	IC50 [6] [µmol/L]	also measured
COc1cc2ncnc(Nc3ccc(F)c(Cl)c3)c2cc1OCCn1ccnc1 [JLY1002]	Highly soluble in DMSO	soluble in water, soluble in methanol	slightly	Stable in air,	photostable							IC50 [2, 10]: > 100 µmol/L; IC50 ([3]; Homo sapiens, MCF7S): > 100 µmol/L; IC50 ([4]; Keratinocyte, 48 h): > 100 µmol/L; IC50 ([5]; Homo sapiens): 48.2 ± 0.51 µmol/L; IC50 ([6]; Homo sapiens, MCF7a): > 100 µmol/L; IC50 ([7]; 48 h): > 100 µmol/L
COc1cc2ncnc(Nc3ccc(F)c(Cl)c3)c2cc1OCC[N]1CC[NH][Ru]1([Cl])([Cl])([Cl])[SH](C)(C)=O [JLY2007]	Highly soluble in DMSO	soluble in water, soluble in methanol	slightly	Stable in air,	photostable	0.0075						
COc1cc2ncnc(Nc3ccc(F)c(Cl)c3)c2cc1OC [LQ1001, reference compound]	Highly soluble in DMSO	soluble in water, soluble in methanol	slightly	Stable in air,	photostable		> 100					IC50 [2, 10]: 53.3 ± 3.12 µmol/L; IC50 ([3]; Homo sapiens, MCF7S): > 100 µmol/L; IC50 [4, 11]: 88.2 ± 3.98 µmol/L; IC50 ([5]; Homo sapiens): > 100 µmol/L; IC50 ([6]; Homo sapiens, MCF7a): > 100 µmol/L
Cl.[Cl-].[Cl-].[Cl-].[Ru+3].c1c[nH]cn1.c1c[nH]cn1 [NAMI-A, reference compound]							> 100	> 100	> 100	> 100	> 100	
Cc1ccc(C(C)C)cc1.F[P-](F)(F)(F)(F)F.[Cl][Ru-]1[NH2+]CC[NH2+]1 [Pcy-Ru, reference compound]							> 100	21.8 ± 1.73	13 ± 3.37	14.3 ± 1.5	> 100	IC50 [5]: 17.3 ± 0.76 µmol/L
CC(=O)O[C@H]1C(=O)[C@@]2(C)[C@H]([C@H](OC(=O)c3ccccc3)[C@]3(O)C[C@H](OC(=O)[C@H](O)[C@@H](NC(=O)c4ccccc4)c4ccccc4)C(C)=C1C3(C)C)[C@]1(OC(C)=O)CO[C@@H]1C[C@@H]2O [Taxol, reference compound]							0.74 ± 0.18					IC50 [2, 10]: 0.029 µmol/L; IC50 [4, 11]: 1.06 ± 0.31 µmol/L; IC50 ([5]; Homo sapiens): 4.07 ± 1.63 µmol/L; IC50 ([6]; Homo sapiens, MCF7a): 0.44 ± 0.5 µmol/L
COc1cc2ncnc(Nc3ccc(F)c(Cl)c3)c2cc1OCCBr [ZW1001-M, 4-(3′-chloro-4′-fluoro-phenylamino)-6-(2-bromo-ethoxy)-7-methoxy quinazoline]	Highly soluble in DMSO	soluble in water, soluble in methanol	slightly	Stable in air,	photostable	0.018						
COc1cc2ncnc(Nc3ccc(F)c(Cl)c3)c2cc1OCC[N]1CC[NH][Ru+]1([Cl])[c]1ccccc1.F[P-](F)(F)(F)(F)F (stereo not drawn) [ZW2002]				Stable in air,	photostable	0.0938	> 100	> 100	> 100	42.1 ± 2.55	> 100	IC50 [5]: > 100 µmol/L
COc1cc2ncnc(Nc3ccc(F)c(Cl)c3)c2cc1OCCC[N]1CC[NH][Ru+]1([Cl])[c]1cc(C(C)C)ccc1C.F[P-](F)(F)(F)(F)F (stereo not drawn) [ZW2004]	Highly soluble in DMSO	soluble in water, soluble in methanol	slightly	Stable in air,	photostable	0.106	79.9 ± 7.44	33.9 ± 1.39	86.8 ± 6.66	58.2 ± 1.49	> 100	IC50 ([2]; MCF-7/S+EGF, read-out: IC50 under the test condition of MCF-7/S+EGF inhibiting the proliferation of tumor cells): 33.9 µmol/L; IC50 ([2]; MCF-7/S+EGF, read-out: IC50 under the test conditions of MCF-7/S+EGF inhibiting tumor cell proliferation): 33.9 µmol/L
COc1cc2ncnc(Nc3ccc(F)c(Cl)c3)c2cc1OCCC[N]1CC[NH][Ru+]1([Cl])[c]1ccccc1.F[P-](F)(F)(F)(F)F (stereo not drawn) [ZW2005]				Stable in air,	photostable	0.174	38.3 ± 3.56	17.4 ± 1.09	> 100	39.8 ± 4.85	> 100	IC50 [5]: 45.1 ± 2.34 µmol/L
COc1cc2ncnc(Nc3ccc(F)c(Cl)c3)c2cc1OCC[NH+]1CC[NH2+][Pt-2]1([Cl])[Cl] (stereo not drawn) [ZY-1]	Highly soluble in DMSO	soluble in water, soluble in methanol	slightly	Stable in air,	photostable	0.0028						
COc1cc2ncnc(Nc3ccc(F)c(Cl)c3)c2cc1OCCC[NH+]1CC[NH2+][Pt-2]1([Cl])[Cl] (stereo not drawn) [ZY-2]	Highly soluble in DMSO	soluble in water, soluble in methanol	slightly	Stable in air,	photostable	0.017						
